pEC50, pIC50: −log10 of the molar value.
How the values were obtained:
[1] = test system: Human immunodeficiency virus 1; assay: Antiviral activity against HIV1 3B expressing reverse transcriptase K103N + Y181C mutant infected in human MT4 cells assessed as reduction in virus-induced cytopathogenicity incubated for 4 days by MTT method; assay type: functional, organism-based; conditions: Human immunodeficiency virus 1, 3B, MT4, 96 h
[2] = test system: Human immunodeficiency virus 2; assay: Antiviral activity against HIV2 ROD infected in human MT4 cells assessed as reduction in virus-induced cytopathogenicity incubated for 4 days by MTT method; assay type: functional, organism-based; conditions: Human immunodeficiency virus 2, ROD, MT4, 96 h
[3] = Cytotoxicity against human MT4 cells assessed as reduction in cell viability incubated for 4 days by MTT assay; assay type: cell-based
[4] = Selectivity index, ratio of CC50 for human MT4 cells to EC50 for HIV1 3B infected in human MT4 cells; assay type: toxicity, cell-based; conditions: read-out: Ratio CC50/EC50
[5] = test system: Human immunodeficiency virus 1; assay: Antiviral activity against HIV1 expressing reverse transcriptase F227L + V106A mutant; assay type: functional, organism-based
[6] = molecular target: Human immunodeficiency virus type 1 reverse transcriptase (Human immunodeficiency virus 1, UniProt Q72547); assay: Inhibition of HIV1 reverse transcriptase p66/p51 assessed as inhibition of biotin-dUTP incorporation using poly (rA)/oligo(dT)16 as template/primer incubated for 40 mins
[7] = test system: Human immunodeficiency virus 1; assay: Antiviral activity against HIV1 3B infected in human MT4 cells assessed as reduction in virus-induced cytopathogenicity incubated for 4 days by MTT method; assay type: functional, organism-based; conditions: Human immunodeficiency virus 1, 3B, MT4, 96 h
[8] = test system: Human immunodeficiency virus 1; assay: Antiviral activity against HIV1 expressing reverse transcriptase L100I mutant; assay type: functional, organism-based
[9] = test system: Human immunodeficiency virus 1; assay: Antiviral activity against HIV1 expressing reverse transcriptase K103N mutant; assay type: functional, organism-based
[10] = test system: Human immunodeficiency virus 1; assay: Antiviral activity against HIV1 expressing reverse transcriptase E138K mutant; assay type: functional, organism-based
[11] = test system: Human immunodeficiency virus 1; assay: Antiviral activity against HIV1 expressing reverse transcriptase Y181C mutant; assay type: functional, organism-based
[12] = test system: Human immunodeficiency virus 1; assay: Antiviral activity against HIV1 expressing reverse transcriptase Y188L mutant; assay type: functional, organism-based

| Structure (SMILES) | pEC50 [1] | pEC50 [2] | CC50 at 96 h [3] [µM] | selectivity ratio [4] | pEC50 [5] | pIC50 [6] | pEC50 [7] | pEC50 [8] | pEC50 [9] | pEC50 [10] | pEC50 [11] | pEC50 [12] |
| --- | --- | --- | --- | --- | --- | --- | --- | --- | --- | --- | --- | --- |
| Cc1cc(C#N)cc(C)c1Oc1ccnc(SCC(=O)Nc2ccc(C#N)cc2)n1 | < 3.52 | < 3.52 | > 301 | > 71 | – | – | – | – | – | – | – | – |
| Cc1cc(C#N)cc(C)c1Oc1ccnc(S(=O)(=O)CC(=O)Nc2ccc(F)cc2)n1 | 5.36 | < 4.58 | 26.1 | 2930 | 5.83 | 5.74 | 8.05 | 6.13 | 7.39 | 6.64 | 6.17 | 5.40 |
| Cc1cc(C#N)cc(C)c1Oc1ccnc(S(=O)(=O)CC(=O)Nc2ccccc2Cl)n1 | < 4.90 | < 4.90 | 12.5 | 8.7 | – | 3.84 | 5.84 | – | – | – | – | – |
| Cc1cc(C#N)cc(C)c1Oc1ccnc(S(=O)(=O)CC(=O)Nc2cccc(Cl)c2)n1 | 5.14 | < 4.59 | 25.4 | 831 | – | 6.01 | 7.51 | – | – | – | – | – |
| Cc1cc(C#N)cc(C)c1Oc1ccnc(S(=O)(=O)CC(=O)Nc2ccc(Cl)cc2)n1 | 5.98 | < 4.78 | 16.6 | 4740 | 6.17 | 6.14 | 8.46 | 6.72 | 8.00 | 7.38 | 6.89 | 5.85 |
| Cc1cc(C#N)cc(C)c1Oc1ccnc(S(=O)(=O)CC(=O)Nc2ccc(Cl)cc2Cl)n1 | < 4.98 | < 4.98 | 10.4 | 36.5 | – | 4.82 | 6.55 | – | – | – | – | – |
| Cc1cc(C#N)cc(C)c1Oc1ccnc(S(=O)(=O)CC(=O)Nc2ccc(Cl)c(Cl)c2)n1 | 5.93 | < 4.93 | 11.7 | 666 | 5.50 | 6.75 | 7.76 | 6.33 | 7.35 | 6.61 | 6.49 | 5.83 |
| Cc1cc(C#N)cc(C)c1Oc1ccnc(S(=O)(=O)CC(=O)Nc2cc(Cl)cc(Cl)c2)n1 | < 4.62 | < 4.62 | 24 | 58.9 | – | 6.04 | 6.39 | – | – | – | – | – |
| Cc1cc(C#N)cc(C)c1Oc1ccnc(S(=O)(=O)CC(=O)Nc2ccc(Br)cc2)n1 | 6.02 | < 4.81 | 15.6 | 5980 | 6.32 | 6.14 | 8.59 | 6.74 | 8.00 | 7.40 | 6.94 | 6.02 |
| Cc1cc(C#N)cc(C)c1Oc1ccnc(S(=O)(=O)CC(=O)Nc2ccc(C#N)cc2)n1 | 6.37 | ≤ 4.49 | ≥ 6.01 | ≥ 3540 | 6.90 | 7.19 | 8.77 | 7.17 | 8.47 | 7.78 | 7.50 | 6.50 |
| Cc1cc(C#N)cc(C)c1Oc1ccnc(S(=O)(=O)CC(=O)Nc2ccc(C#N)cc2F)n1 | < 3.57 | < 3.57 | > 269 | > 7810 | – | 6.53 | 7.46 | – | – | – | – | – |
| Cc1cc(C#N)cc(C)c1Oc1ccnc(S(=O)(=O)CC(=O)Nc2cccc([N+](=O)[O-])c2)n1 | ≤ 5.13 | < 4.63 | 23.6 | 501 | – | 5.85 | 7.33 | – | – | – | – | – |
| Cc1cc(C#N)cc(C)c1Oc1ccnc(S(=O)(=O)CC(=O)Nc2ccc([N+](=O)[O-])cc2)n1 | 6.41 | < 4.22 | 59.6 | 45800 | 6.85 | 7.28 | 8.89 | 6.95 | 8.14 | 7.59 | 7.39 | 6.56 |
| Cc1cc(C#N)cc(C)c1Oc1ccnc(S(=O)(=O)CC(=O)Nc2ccccc2)n1 | < 4.53 | < 4.53 | 29.3 | 1120 | – | 4.80 | 7.59 | – | – | – | – | – |
| Cc1cccc(NC(=O)CS(=O)(=O)c2nccc(Oc3c(C)cc(C#N)cc3C)n2)c1 | < 4.59 | < 4.59 | 25.7 | 75 | – | 3.88 | 6.46 | – | – | – | – | – |
| Cc1ccc(NC(=O)CS(=O)(=O)c2nccc(Oc3c(C)cc(C#N)cc3C)n2)cc1 | ≤ 5.02 | < 5.13 | 7.49 | 1060 | – | 6.12 | 8.15 | – | – | – | – | – |
| Cc1ccc(NC(=O)CS(=O)(=O)c2nccc(Oc3c(C)cc(C#N)cc3C)n2)cc1C | < 4.86 | < 4.86 | 13.9 | 179 | – | 4.56 | 7.11 | – | – | – | – | – |
| COc1ccc(NC(=O)CS(=O)(=O)c2nccc(Oc3c(C)cc(C#N)cc3C)n2)cc1 | < 5.29 | < 5.29 | 5.11 | 136 | – | 5.33 | 7.42 | – | – | – | – | – |
| Cc1cc(C#N)cc(C)c1Oc1ccnc(S(=O)(=O)CC(=O)Nc2ccccc2F)n1 | < 4.55 | < 4.55 | 28.4 | 176 | – | 4.61 | 6.79 | – | – | – | – | – |
| Cc1cc(C#N)cc(C)c1Oc1ccnc(S(=O)(=O)CC(=O)Nc2cccc(F)c2)n1 | 5.15 | < 4.59 | 25.9 | 1680 | – | 6.66 | 7.81 | – | – | – | – | – |
| O=C1Nc2ccc(Cl)cc2[C@@](C#CC2CC2)(C(F)(F)F)O1 [EFAVIRENZ] | – | – | > 6.34 | – | 6.64 | – | 8.20 | 7.02 | – | 8.27 | 8.09 | 6.46 |
| Cc1cc(C#N)cc(C)c1Oc1nc(Nc2ccc(C#N)cc2)nc(N)c1Br [ETRAVIRINE] | – | – | > 4.59 | > 1120 | 7.83 | – | – | 7.75 | 8.49 | 7.77 | 7.94 | 7.80 |
| Cc1ccnc2c1NC(=O)c1cccnc1N2C1CC1 [NEVIRAPINE] | ≤ 5.12 | – | > 15 | – | < 4.82 | – | – | 5.46 | 5.03 | 6.54 | ≤ 4.91 | < 4.82 |

Source: ChEMBL document CHEMBL3621191, “Pyrimidine sulfonylacetanilides with improved potency against key mutant viruses of HIV-1 by specific targeting of a highly conserved residue” (Eur J Med Chem, 2015)
